Here are results for 16 compounds from US5399577A, “Isoxazole derivatives and salts thereof” (Taiho Pharmaceutical Co., Ltd., priority 1991, dated 1995).

For one assay, the target named is cyclooxygenase. As to the kind of experiment: Cyclooxygenase inhibiting effect. It counts as biochemical. Particulars: seminal vasicular gland microsomes, 14C-arachidonic acid, prostaglandin E2 formation. On the procedure: (1) Cyclooxygenase inhibiting effect
This assay was carried out by the method described in Russell J. Taylor et al., Biochem. Pharmacol., 25, 2479-2484 (1976).
^14 C-arachidonic acid was reacted with seminal vasicular gland microsomes and the test drugs at various concentrations over a predetermined period of time and the obtained prostaglandin E2 was separated by thin layer chromatography. The radioactivity of prostaglandin E2 was determined by liquid scintillation counter. The IC50 values were calculated by the comparison with the radioactivity of the control.

The target in a further assay is T1, 5-Lipoxygenase (Cavia porcellus, UniProt A0A286X958).
T1 construct: the polymorphonuclear leucocytes were collected and the cytosol fraction was obtained as an enzyme source; endogenous in cells; host or cells: guinea pig peritoneal polymorphonuclear leucocytes, cytosol fraction
T1 sequence (A0A286X958 1-674): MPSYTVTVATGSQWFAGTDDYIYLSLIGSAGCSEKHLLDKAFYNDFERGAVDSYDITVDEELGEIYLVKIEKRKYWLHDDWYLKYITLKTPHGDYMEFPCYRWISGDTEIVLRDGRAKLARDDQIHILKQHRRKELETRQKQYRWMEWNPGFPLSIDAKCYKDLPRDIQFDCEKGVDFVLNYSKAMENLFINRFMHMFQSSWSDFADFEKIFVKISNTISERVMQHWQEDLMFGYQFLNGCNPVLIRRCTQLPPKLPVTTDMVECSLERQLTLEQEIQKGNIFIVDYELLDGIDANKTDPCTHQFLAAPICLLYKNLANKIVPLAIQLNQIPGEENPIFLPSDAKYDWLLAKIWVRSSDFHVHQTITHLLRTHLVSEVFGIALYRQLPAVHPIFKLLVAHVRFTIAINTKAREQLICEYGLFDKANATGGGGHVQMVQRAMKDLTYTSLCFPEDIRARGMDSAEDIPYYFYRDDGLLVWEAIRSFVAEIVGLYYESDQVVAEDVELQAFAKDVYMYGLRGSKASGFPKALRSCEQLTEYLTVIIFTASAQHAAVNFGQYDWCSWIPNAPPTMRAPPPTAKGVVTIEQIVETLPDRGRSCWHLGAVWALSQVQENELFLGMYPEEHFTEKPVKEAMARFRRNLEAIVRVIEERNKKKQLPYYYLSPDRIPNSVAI
As to the kind of experiment: 5-Lipoxygenase inhibiting activity. The assay is classed as biochemical. Particulars: cytosol fraction of guinea pig polymorphonuclear leucocytes, 14C-arachidonic acid, 5-hydroxyeicosatetraenoic acid formation. How it is done: (2) 5-Lipoxygenase inhibiting activity
This assay was carried out by the method described in Kenkichi Ochi et al., J. Biol. Chem., 258, 5754-5758 (1983).
Casein was injected into the abdominal cavity of a guinea pig, and the polymorphonuclear leucocytes were collected and the cytosol fraction was obtained as an enzyme source. ^14 C-arachidonic acid was reacted with the enzyme and the test drug at various concentrations over a predetermined period of time. The obtained 5-hydroxyeicosatetraenoic acid was separated by thin layer chromatography and the radioactivity was determined. The IC^50 values were calculated by the comparison with the radioactivity of the control.

In the case of `COc1ccc(-c2noc(CCNC(=O)/C=C/c3ccc(O)c(O)c3)c2-c2ccc(OC)cc2)cc1` [Compound 5], the IC50 on cyclooxygenase amounted to 100 nM; at 5-Lipoxygenase, 113 nM.
The matching figures for `COc1ccc(-c2noc(CCOC(=O)/C=C/c3ccc(O)c(O)c3)c2-c2ccc(OC)cc2)cc1` [Compound 4]: 66 nM and 62 nM.
Consider `COc1ccc(-c2noc(CCCC(=O)/C=C/c3ccc(O)c(O)c3)c2-c2ccc(OC)cc2)cc1` [Compound 38], for which the IC50 worked out at 140 nM at cyclooxygenase and 55 nM against 5-Lipoxygenase.
Consider `COc1ccc(-c2noc(CCCC(=O)/C=C/c3cc(C)c(O)c(C)c3)c2-c2ccc(OC)cc2)cc1` [Compound 40], for which the IC50 against cyclooxygenase stood at 240 nM; at 5-Lipoxygenase it was 3030 nM.
In the case of `COc1ccc(-c2noc(CCNC(=S)/C=C/c3ccc(O)c(OC)c3)c2-c2ccc(OC)cc2)cc1` [Compound 48], the 50% inhibitory concentration (IC50) against cyclooxygenase is 30 nM; on 5-Lipoxygenase it was 630 nM.
The matching figures for `COc1ccc(-c2noc(CCNC(=O)/C=C/C=C/c3c(OC)cc(O)cc3OC)c2-c2ccc(OC)cc2)cc1` [Compound 14]: below 10 nM and 130 nM.
For `COc1ccc(-c2noc(CCNC(=O)/C=C/c3cc(OC)c(O)c(OC)c3)c2-c2ccc(OC)cc2)cc1` [Compound 10], the IC50 against cyclooxygenase worked out at 100 nM; against 5-Lipoxygenase, 670 nM.
The matching figures for `Cc1ccc(-c2noc(CCNC(=O)/C=C/c3ccc(O)c(O)c3)c2-c2ccc(C)cc2)cc1` [Compound 7]: 2600 nM and 110 nM.
As for `COc1ccc(-c2noc(CNC(=O)/C=C/C=C/c3ccc(O)c(OC)c3)c2-c2ccc(OC)cc2)cc1` [Compound 15], the concentration for half-maximal inhibition (IC50) on cyclooxygenase turned out to be 50 nM; against 5-Lipoxygenase it was 110 nM.
`COc1ccc(-c2noc(CCNC(=O)/C=C/C=C/c3cc(OC)c(O)c(OC)c3)c2-c2ccc(OC)cc2)cc1` [Compound 13]: the figures for the IC50 at cyclooxygenase and on 5-Lipoxygenase were 10 nM and 50 nM, respectively.
As for `COc1ccc(-c2noc(CCCC(=O)/C=C/c3cc(OC)c(O)c(OC)c3)c2-c2ccc(OC)cc2)cc1` [Compound 39], the IC50 on cyclooxygenase was determined as 1310 nM; on 5-Lipoxygenase, 180 nM.
For `COc1ccc(-c2noc(CNC(=O)/C=C/C=C/c3cc(OC)c(O)c(OC)c3)c2-c2ccc(OC)cc2)cc1` [Compound 16], in that order: 290 nM and 230 nM.
For `COc1ccc(-c2noc(C(=O)/C=C/C=C/c3ccc(O)c(OC)c3)c2-c2ccc(OC)cc2)cc1` [Compound 46], in that order: 280 nM and 390 nM.
Turning to `O=C(/C=C/c1ccc(O)c(O)c1)NCCc1onc(-c2ccccc2)c1-c1ccccc1` [Compound 6], the half-maximal inhibitory concentration (IC50) turned out to be 2600 nM on cyclooxygenase and 100 nM against 5-Lipoxygenase.
In the case of `COc1ccc(-c2noc(CCNC(=O)/C=C/C=C/c3ccc(O)c(OC)c3)c2-c2ccc(OC)cc2)cc1` [Compound 12], the values for the IC50 against cyclooxygenase and against 5-Lipoxygenase were 15 nM and 240 nM, respectively.
The matching figures for `COc1ccc(-c2c(-c3ccc(Cl)cc3)noc2CCNC(=O)/C=C/c2ccc(O)c(O)c2)cc1` [Compound 8]: 1500 nM and 86 nM.

Usually IC50 stands for the concentration needed to halve the response being measured. High values mean weaker potency, low ones greater potency.
